By IC50 is commonly meant the point on the concentration scale where inhibition reaches its midpoint.

Where only a bound is given, the exact number is not on record here.

Test [1] deals with CtermHisTag-mEGFR Triple Mutant - C797S, L858R, T790M (Homo sapiens, UniProt P00533, C797S/L858R/T790M). Kind of test: TR-FRET probe displacement assay, EGFR triple mutant. It is filed as binding. The following applies: T790M 1.25 nM, probe 100 nM, 30 mins room temperature. In outline:
(§1)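 Ten-point compound series, 100000 to 3 nM final, tested against His-tagged EGFR (wild type or C797S/L858R/T790M) for probe displacement. TR-FRET read at Ex337 nm, Em490/520 nm; run in technical replicate, biological duplicate.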
On the technique in general: In TR-FRET formats the signal depends on donor and acceptor labels being close together.

Test [2] has as its target T1, Phospho-EGFR (Tyr1068) in H1975 C797S cells (Homo sapiens, UniProt P00533, C797S/L858R/T790M).
T1 construct: endogenous in cells; host or cells: H1975 C797S (CRISPR-edited in house from ATCC CRL-5908)
As to the kind of experiment: HTRF pEGFR/total EGFR assay in H1975 C797S cells. It is filed as cell-based. The following applies: H1975 C797S cells (CRISPR), compound 3 hours, ratio pEGFR/total EGFR. In outline:
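H1975 cells carrying CRISPR-engineered EGFR C797S (with L858R/T790M) were exposed to compounds for 3 h at 0.1% DMSO, in duplicate. Lysates were read with HTRF kits for pEGFR Tyr1068 and total EGFR at 665/620 nm. Values are the pEGFR/total EGFR ratio as percent of the 0 uM control.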

Test [3] has as its target CtermHisTag-mEGFR Wild type (Homo sapiens, UniProt P00533). As to the kind of experiment: TR-FRET probe displacement assay, EGFR wild type. It is filed as binding. The following applies: EGFR wild type 1.25 nM, probe 100 nM, 30 mins room temperature. In outline: as §1
The target in test [4] is T2, Phospho-EGFR (Tyr1068) in A431 cells (Homo sapiens, UniProt P00533).
T2 construct: endogenous in cells; host or cells: A431
As to the kind of experiment: HTRF pEGFR/total EGFR assay in A431 cells (EGF stimulated). It is filed as cell-based. The following applies: compound 2.5 hours then 100 ng/ml EGF 30 mins, ratio pEGFR/total EGFR. An outline of the steps:
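A431 cells pretreated with compounds 2.5 h (0.1% DMSO), then stimulated with 100 ng/ml EGF for 30 min. Lysates assayed by HTRF for phospho-EGFR (Tyr1068) and total EGFR, read at 665/620 nm. Values are pEGFR/total EGFR ratio as percentage of 0uM control.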

Test [5] deals with T3, Phospho-EGFR (Tyr1068) in H1975 cells (Homo sapiens, UniProt P00533, L858R/T790M).
T3 construct: host or cells: H1975
Kind of test: HTRF pEGFR/total EGFR assay in H1975 cells. It is filed as cell-based. The following applies: compound 3 hours, ratio pEGFR/total EGFR. In outline: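 H1975 cells (EGFR L858R/T790M) adhered 24 h, then compound-treated for 3 h in duplicate, 0.1% DMSO final. Lysates read by HTRF at 665/620 nm for phospho-Tyr1068 and total EGFR. Value is pEGFR/total EGFR ratio as % of 0 uM control.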

T3 sequence (P00533 25-1210 T790M/L858R): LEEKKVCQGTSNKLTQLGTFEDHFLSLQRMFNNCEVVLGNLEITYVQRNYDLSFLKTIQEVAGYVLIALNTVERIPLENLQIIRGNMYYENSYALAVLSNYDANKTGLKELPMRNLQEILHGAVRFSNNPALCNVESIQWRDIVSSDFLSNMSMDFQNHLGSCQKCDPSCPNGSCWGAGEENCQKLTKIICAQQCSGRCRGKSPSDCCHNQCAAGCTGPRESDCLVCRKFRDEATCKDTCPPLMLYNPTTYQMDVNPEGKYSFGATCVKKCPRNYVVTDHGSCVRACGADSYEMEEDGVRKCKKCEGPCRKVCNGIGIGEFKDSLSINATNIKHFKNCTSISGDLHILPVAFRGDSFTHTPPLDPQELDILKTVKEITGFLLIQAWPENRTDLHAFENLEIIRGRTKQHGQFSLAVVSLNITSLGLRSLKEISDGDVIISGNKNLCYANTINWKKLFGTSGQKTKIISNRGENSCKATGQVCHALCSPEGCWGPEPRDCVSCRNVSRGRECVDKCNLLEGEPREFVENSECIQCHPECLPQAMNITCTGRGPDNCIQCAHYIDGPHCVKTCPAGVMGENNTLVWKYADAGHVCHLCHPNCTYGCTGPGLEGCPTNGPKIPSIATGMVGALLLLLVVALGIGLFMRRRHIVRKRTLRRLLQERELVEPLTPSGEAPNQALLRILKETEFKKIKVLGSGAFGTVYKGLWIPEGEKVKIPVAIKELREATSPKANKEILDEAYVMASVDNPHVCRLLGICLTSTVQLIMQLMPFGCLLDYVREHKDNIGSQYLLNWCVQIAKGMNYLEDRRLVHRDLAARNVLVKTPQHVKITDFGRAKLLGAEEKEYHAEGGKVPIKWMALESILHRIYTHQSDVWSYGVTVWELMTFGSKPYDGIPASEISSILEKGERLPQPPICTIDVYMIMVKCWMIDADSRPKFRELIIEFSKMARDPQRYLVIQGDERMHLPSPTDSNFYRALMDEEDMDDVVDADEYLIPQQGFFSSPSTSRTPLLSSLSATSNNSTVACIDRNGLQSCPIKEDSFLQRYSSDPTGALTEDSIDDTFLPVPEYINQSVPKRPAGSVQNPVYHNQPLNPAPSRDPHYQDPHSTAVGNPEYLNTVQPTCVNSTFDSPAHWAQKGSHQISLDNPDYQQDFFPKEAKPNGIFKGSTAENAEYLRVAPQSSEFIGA
T2 sequence (P00533 25-1210): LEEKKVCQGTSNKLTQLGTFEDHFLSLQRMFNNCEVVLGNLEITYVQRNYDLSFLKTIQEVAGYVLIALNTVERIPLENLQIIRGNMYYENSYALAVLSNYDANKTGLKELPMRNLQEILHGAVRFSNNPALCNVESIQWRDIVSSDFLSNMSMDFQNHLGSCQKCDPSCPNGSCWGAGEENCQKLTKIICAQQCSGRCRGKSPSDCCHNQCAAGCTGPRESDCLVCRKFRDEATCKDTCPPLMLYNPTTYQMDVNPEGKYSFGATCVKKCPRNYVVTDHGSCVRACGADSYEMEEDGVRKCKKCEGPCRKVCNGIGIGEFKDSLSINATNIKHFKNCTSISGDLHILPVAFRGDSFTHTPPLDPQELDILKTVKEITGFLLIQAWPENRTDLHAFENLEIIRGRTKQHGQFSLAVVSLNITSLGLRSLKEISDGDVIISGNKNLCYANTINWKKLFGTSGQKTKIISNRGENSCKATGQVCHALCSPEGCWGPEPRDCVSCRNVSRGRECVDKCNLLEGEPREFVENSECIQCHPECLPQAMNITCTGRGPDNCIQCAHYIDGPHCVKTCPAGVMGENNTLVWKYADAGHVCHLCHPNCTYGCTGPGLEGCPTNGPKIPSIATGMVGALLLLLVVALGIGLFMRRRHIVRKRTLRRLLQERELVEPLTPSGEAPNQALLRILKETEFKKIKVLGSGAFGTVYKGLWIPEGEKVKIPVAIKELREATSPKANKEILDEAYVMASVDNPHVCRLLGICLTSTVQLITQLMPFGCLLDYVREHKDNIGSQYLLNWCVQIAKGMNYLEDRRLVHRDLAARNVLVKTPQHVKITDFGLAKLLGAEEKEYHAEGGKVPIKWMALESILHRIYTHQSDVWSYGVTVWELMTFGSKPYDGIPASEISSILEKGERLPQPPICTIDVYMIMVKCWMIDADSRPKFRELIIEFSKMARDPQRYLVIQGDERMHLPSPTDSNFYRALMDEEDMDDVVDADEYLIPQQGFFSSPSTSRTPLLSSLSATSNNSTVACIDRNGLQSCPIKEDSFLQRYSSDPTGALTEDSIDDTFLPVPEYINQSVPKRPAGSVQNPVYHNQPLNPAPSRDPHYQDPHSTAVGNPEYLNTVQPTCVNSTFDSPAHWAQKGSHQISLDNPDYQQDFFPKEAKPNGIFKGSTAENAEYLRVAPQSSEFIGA
Sequence of CtermHisTag-mEGFR Wild type (P00533 25-1210): as above
Sequence of CtermHisTag-mEGFR Triple Mutant - C797S, L858R, T790M (P00533 25-1210 T790M/C797S/L858R): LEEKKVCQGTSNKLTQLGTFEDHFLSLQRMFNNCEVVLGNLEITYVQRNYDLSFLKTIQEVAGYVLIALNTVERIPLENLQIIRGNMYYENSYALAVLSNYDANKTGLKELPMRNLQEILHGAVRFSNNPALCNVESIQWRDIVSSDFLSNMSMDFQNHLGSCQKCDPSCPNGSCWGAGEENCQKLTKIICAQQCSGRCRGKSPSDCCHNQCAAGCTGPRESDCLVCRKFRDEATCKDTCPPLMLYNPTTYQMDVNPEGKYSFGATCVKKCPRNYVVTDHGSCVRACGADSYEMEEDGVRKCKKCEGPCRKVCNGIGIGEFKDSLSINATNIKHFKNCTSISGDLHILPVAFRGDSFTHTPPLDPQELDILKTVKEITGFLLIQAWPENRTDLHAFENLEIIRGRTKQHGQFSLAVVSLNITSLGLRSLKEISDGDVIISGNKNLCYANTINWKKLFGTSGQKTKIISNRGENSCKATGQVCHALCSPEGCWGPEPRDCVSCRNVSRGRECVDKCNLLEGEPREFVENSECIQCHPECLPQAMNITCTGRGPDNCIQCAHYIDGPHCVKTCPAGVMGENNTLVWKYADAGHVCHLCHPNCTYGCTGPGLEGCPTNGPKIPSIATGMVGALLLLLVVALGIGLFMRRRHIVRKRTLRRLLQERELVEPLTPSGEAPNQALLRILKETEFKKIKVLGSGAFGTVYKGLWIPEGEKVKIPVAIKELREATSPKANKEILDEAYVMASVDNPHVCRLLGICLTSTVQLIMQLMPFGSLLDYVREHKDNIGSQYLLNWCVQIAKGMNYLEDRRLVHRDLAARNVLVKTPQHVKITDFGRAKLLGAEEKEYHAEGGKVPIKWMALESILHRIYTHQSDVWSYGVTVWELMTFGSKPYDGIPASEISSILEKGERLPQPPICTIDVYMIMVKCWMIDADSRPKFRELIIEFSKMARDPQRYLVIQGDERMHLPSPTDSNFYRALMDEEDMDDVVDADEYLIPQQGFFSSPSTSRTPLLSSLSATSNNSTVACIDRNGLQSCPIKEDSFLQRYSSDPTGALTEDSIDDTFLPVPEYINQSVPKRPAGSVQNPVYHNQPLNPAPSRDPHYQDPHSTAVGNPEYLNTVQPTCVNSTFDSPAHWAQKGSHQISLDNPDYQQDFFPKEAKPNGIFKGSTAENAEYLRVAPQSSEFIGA

On to `C#Cc1cc(NC(=O)NC2CCCC2)nc2nc(Nc3ccc(S(C)(=O)=O)cc3)ncc12` [Example 81, 3-Cyclopentyl-1-{5-ethynyl-2-[(4-methanesulfonylphenyl)amino]pyrido[2,3-d]pyrimidin-7-yl}urea], for which the IC50 in test [1] is under 20 nM; in test [2] it was 1000 to 3000 nM; in test [3], under 1000 nM; in test [4] it was 500 to 1000 nM; in test [5] it was 500 to 1000 nM.
As for `C#Cc1cc(NS(C)(=O)=O)nc2c1=CNC(Nc1ccc(N(C)CCN(C)C)cc1)N=2` (centres unmarked) [Example 33], the half-inhibitory concentration (IC50) is 20 to 100 nM in test [1]; over 3000 nM in test [2]; over 10000 nM in test [3]; over 3000 nM in test [4]; over 3000 nM in test [5].
`C#Cc1cc(NC(=O)NC2CCCC2)nc2nc(Nc3ccc(N(C)C(C)=O)cc3)ncc12` [Example 77, N-[4-((7-[(Cyclopentylcarbamoyl)amino]-5-ethynyl)pyrido[2,3-d]pyrimidin-2-ylamino)phenyl]-N-methylacetamide]: the concentration for half-maximal inhibition (IC50) in test [1] was under 20 nM; in test [2], over 3000 nM; in test [3] it was under 1000 nM; in test [4], over 3000 nM; in test [5] it was 500 to 1000 nM.
For the compound `C#Cc1cc(N2C(=O)N(C)CC23CCCC3)nc2nc(Nc3ccc(OCCN(C)C)cc3)ncc12` [Example 107], the half-maximal inhibitory concentration (IC50) in test [1] is 100 to 1000 nM; in test [2], 1000 to 3000 nM; in test [3], 1000 to 10000 nM; in test [4] it was over 3000 nM; in test [5], 1000 to 3000 nM.
Regarding `C#Cc1cc(N2C(=O)NCC2C(C)C)nc2nc(Nc3ccc(N4CCN(C)CC4)cc3)ncc12` (centres unmarked) [Example 64, 1-(5-ethynyl-2-{[4-(4-methylpiperazin-1-yl)phenyl]amino}pyrido[2,3-d]pyrimidin-7-yl)-5-isopropylmidazolidin-2-one], the IC50 is under 20 nM in test [1]; 1000 to 3000 nM in test [2]; 1000 to 10000 nM in test [3]; under 500 nM in test [4]; under 500 nM in test [5].
For `C#Cc1cc(NC(=O)N2Cc3ccccc3C2)nc2nc(Nc3ccc(N4CCN(C)CC4)cc3)ncc12` [Example 58, N-(5-ethynyl-2-{[4-(4-methylpiperazin-1-yl)phenyl]amino}pyrido[2,3-d]pyrimidin-7-yl)-1,3-dihydroisoindole-2-carboxamide], the half-inhibitory concentration (IC50) in test [1] is 100 to 1000 nM; in test [2] it was over 3000 nM; in test [3], over 10000 nM; in test [4], over 3000 nM; in test [5] it was over 3000 nM.
In the case of `C#Cc1cc(N2C(=O)N(C)CC23CCCC3)nc2nc(Nc3ccc(S(=O)(=O)N(C)C)cc3)ncc12` [Example 109, 4-[(5-Ethynyl-7-{3-methyl-2-oxo-1,3-diazaspiro[4.4]nonan-1-yl}pyrido[2,3-d]pyrimidin-2-yl)amino]-N,N-dimethylbenzenesulfonamide], the IC50 in test [1] was 100 to 1000 nM; in test [2], over 3000 nM; in test [3] it was over 10000 nM; in test [4], 1000 to 3000 nM; in test [5], over 3000 nM.
Take `C#Cc1cc(NC(=O)NCC2CCCC2)nc2nc(Nc3ccc(N4CCN(C)CC4)cc3)ncc12` [Example 40, 3-(cyclopentylmethyl)-1-(5-ethynyl-2-{[4-(4-methylpiperazin-1-yl)phenyl]amino}pyrido[2,3-d]pyrimidin-7-yl)urea]: the concentration for half-maximal inhibition (IC50) was under 20 nM in test [1]; under 500 nM in test [2]; under 1000 nM in test [3]; over 3000 nM in test [4]; under 500 nM in test [5].
Consider `C#Cc1cc(N2C(=O)NC[C@H]2C(C)C)nc2nc(Nc3ccc(N4CCN(C)CC4)cc3)ncc12` [Example 100, (5R)-1-(5-Ethynyl-2-{[4-(4-methylpiperazin-1-yl)phenyl]amino}pyrido[2,3-d]pyrimidin-7-yl)-5-isopropylmidazolidin-2-one], for which the IC50 is 100 to 1000 nM in test [1]; 1000 to 3000 nM in test [2]; over 10000 nM in test [3]; over 3000 nM in test [4]; 500 to 1000 nM in test [5].
As to `C#Cc1cc(-n2cc(C)cn2)nc2nc(Nc3ccc(N(C)CCN(C)C)cc3)ncc12` [Example 34, N^1-[2-(dimethylamino)ethyl]-N^4-[5-ethynyl-7-(4-methylpyrazol-1-yl)pyrido[2,3-d]pyrimidin-2-yl]-N^1-methylbenzene-1,4-diamine], the 50% inhibitory concentration (IC50) was under 20 nM in test [1]; 1000 to 3000 nM in test [2]; 1000 to 10000 nM in test [3]; over 3000 nM in test [4]; over 3000 nM in test [5].
For `C#Cc1cc(NC(=O)NCc2cncn2C)nc2nc(Nc3ccc(N4CCN(C)CC4)cc3)ncc12` [Example 46, 1-(5-ethynyl-2-{[4-(4-methylpiperazin-1-yl)phenyl]amino}pyrido[2,3-d]pyrimidin-7-yl)-3-[(3-methylmidazol-4-yl)methyl]urea], the IC50 in test [1] was under 20 nM; in test [2] it was over 3000 nM; in test [3] it was under 1000 nM; in test [4], over 3000 nM; in test [5], over 3000 nM.
Take `C#Cc1cc(N(C)C)nc2nc(Nc3ccc(N(C)CCN(C)C)cc3)ncc12` [Example 24, N^2-(4-{[2-(dimethylamino)ethyl](methyl)amino}phenyl)-5-ethynyl-N^7,N^7-dimethylpyrido[2,3-d]pyrimidine-2,7-diamine]: the IC50 in test [1] is 1000 to 50000 nM; in test [2], over 3000 nM; in test [3], over 10000 nM; in test [4], over 3000 nM; in test [5], over 3000 nM.
As to `C#Cc1cc(N2C(=O)NC[C@H]2COC)nc2nc(Nc3ccc(N4CCN(C)CC4)cc3)ncc12` [Example 101, (5S)-1-(5-Ethynyl-2-{[4-(4-methylpiperazin-1-yl)phenyl]amino}pyrido[2,3-d]pyrimidin-7-yl)-5-(methoxymethyl)imidazolidin-2-one], the 50% inhibitory concentration (IC50) was 20 to 100 nM in test [1]; over 3000 nM in test [2]; 1000 to 10000 nM in test [3]; over 3000 nM in test [4]; 500 to 1000 nM in test [5].
As to `C#Cc1cc(NC(=O)NCC2CCCO2)nc2nc(Nc3ccc(N4CCN(C)CC4)cc3)ncc12` (centres unmarked) [Example 50, 1-(5-ethynyl-2-{[4-(4-methylpiperazin-1-yl)phenyl]amino}pyrido[2,3-d]pyrimidin-7-yl)-3-(oxolan-2-ylmethyl)urea], the half-maximal inhibitory concentration (IC50) in test [1] was 20 to 100 nM; in test [2], 500 to 1000 nM; in test [3], under 1000 nM; in test [4], over 3000 nM; in test [5] it was under 500 nM.
For `C#Cc1cc(Oc2ccccc2)nc2nc(Nc3ccc(N4CCN(C)CC4)cc3)ncc12` [Example 12, 5-ethynyl-N-[4-(4-methylpiperazin-1-yl)phenyl]-7-phenoxypyrido[2,3-d]pyrimidin-2-amine], in that order: 100 to 1000 nM, over 3000 nM, over 10000 nM, over 3000 nM and over 3000 nM.
In the same order, the values of `C#Cc1cc(NC(=O)NC2CCCC2)nc2nc(Nc3ccc(N4CCOCC4)cc3)ncc12` [Example 75] are under 20 nM, under 500 nM, under 1000 nM, under 500 nM and under 500 nM.
For `C#Cc1cc(N2C(=O)OCC2C2CCCC2)nc2nc(Nc3ccc(N4CCN(C)CC4)cc3)ncc12` (centres unmarked) [Example 111, 4-Cyclopentyl-3-(5-ethynyl-2-{[4-(4-methylpiperazin-1-yl)phenyl]amino}pyrido[2,3-d]pyrimidin-7-yl)-1,3-oxazolidin-2-one], in that order: under 20 nM, 500 to 1000 nM, 1000 to 10000 nM, over 3000 nM and 500 to 1000 nM.
Take `C#Cc1cc(NC(=O)OC2CCCCC2)nc2nc(Nc3ccc(N4CCN(C)CC4)cc3)ncc12` [Example 66, cyclohexyl (5-ethynyl-2-((4-(4-methylpiperazin-1-yl)phenyl)amino)pyrido[2,3-d]pyrimidin-7-yl)carbamate]: the half-inhibitory concentration (IC50) in test [1] was 100 to 1000 nM; in test [2], over 3000 nM; in test [3], over 10000 nM; in test [4], over 3000 nM; in test [5], over 3000 nM.
Take `C#Cc1cc(Nc2nccn2C2CCCC2)nc2nc(Nc3ccc(N4CCN(C)CC4)cc3)ncc12` [Example 27, N^7-(1-cyclopentylmidazol-2-yl)-5-ethynyl-N^2-[4-(4-methylpiperazin-1-yl)phenyl]pyrido[2,3-d]pyrimidine-2,7-diamine]: the IC50 in test [1] is 20 to 100 nM; in test [2], over 3000 nM; in test [3] it was under 1000 nM; in test [4], over 3000 nM; in test [5], 1000 to 3000 nM.

(Values after US20260176265A1 (Cancer Research Technology Limited, priority 2022, published 2026).)
